From patent US20110052730A1, “Leaves Extract of Panax sp., a Process of Making the Same and Uses Thereof” (UNIGEN, INC., priority 2008, published 2011)

Test: Physicochemical properties of ginsenosides (soluble in)

Row | SMILES | Soluble in
1 | CC(C)=CC/C=C(/C)C1CCC2(C)C1[C@H](O)CC1[C@@]3(C)CCC(OC4OC(CO)C(O)C(O)C4OC4OC(CO)C(O)C(O)C4O)C(C)(C)C3CC[C@]12C (some centres unmarked) [Rg5] | Alcohol
2 | C=C(CCC=C(C)C)C1CCC2(C)C1[C@H](O)CC1[C@@]3(C)CCC(OC4OC(CO)C(O)C(O)C4OC4OC(CO)C(O)C(O)C4O)C(C)(C)C3CC[C@]12C (some centres unmarked) [Rk1] | Alcohol
